In ChEMBL document CHEMBL1157938, “Cytotoxicity and inhibition of DNA topoisomerase I of polyhydroxylated triterpenoids and triterpenoid glycosides” (Bioorg Med Chem Lett, 2010):
Activity calls are given as the source filed them. No cut-off for these calls is given here.

Experiments:
[1] = target: T1, DNA topoisomerase 1 (Homo sapiens, UniProt P11387); assay: Inhibition of human DNA topoisomerase 1-mediated relaxation of supercoiled DNA by gel electrophoresis
T1 sequence (P11387 whole entry): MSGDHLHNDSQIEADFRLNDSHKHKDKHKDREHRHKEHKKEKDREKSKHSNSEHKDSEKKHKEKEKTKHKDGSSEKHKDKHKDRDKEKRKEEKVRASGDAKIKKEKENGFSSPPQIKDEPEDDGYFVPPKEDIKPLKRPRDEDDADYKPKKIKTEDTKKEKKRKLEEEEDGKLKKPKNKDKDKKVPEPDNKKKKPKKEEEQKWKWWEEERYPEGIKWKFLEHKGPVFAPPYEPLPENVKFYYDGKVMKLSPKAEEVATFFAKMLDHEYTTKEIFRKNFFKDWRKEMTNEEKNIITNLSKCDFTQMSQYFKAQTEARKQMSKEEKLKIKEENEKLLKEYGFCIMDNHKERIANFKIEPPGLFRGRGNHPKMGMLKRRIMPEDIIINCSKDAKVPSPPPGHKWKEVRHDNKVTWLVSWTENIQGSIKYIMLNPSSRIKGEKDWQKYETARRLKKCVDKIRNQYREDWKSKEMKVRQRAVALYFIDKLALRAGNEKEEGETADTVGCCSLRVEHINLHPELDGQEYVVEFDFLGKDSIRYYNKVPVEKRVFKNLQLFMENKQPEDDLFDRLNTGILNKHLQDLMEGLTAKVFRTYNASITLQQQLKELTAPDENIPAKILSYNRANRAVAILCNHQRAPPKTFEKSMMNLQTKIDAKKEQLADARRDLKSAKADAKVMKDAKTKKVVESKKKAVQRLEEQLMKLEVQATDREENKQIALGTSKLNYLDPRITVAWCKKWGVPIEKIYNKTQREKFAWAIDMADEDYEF

[2] = target: DNA topoisomerase 2-alpha (Homo sapiens, UniProt P11388); assay: Inhibition of human DNA topoisomerase 2-mediated relaxation of supercoiled DNA by gel electrophoresis
[3] = test system: A549; assay: Cytotoxicity against human A549 cells at 25 uM after 48 hrs by WST8 assay; assay type: functional, cell-based
[4] = test system: PC-3; assay: Cytotoxicity against human PC3 cells at 25 uM after 48 hrs by WST8 assay; assay type: functional, cell-based
[5] = test system: HL-60; assay: Cytotoxicity against human HL60 cells at 25 uM after 48 hrs by WST8 assay; assay type: functional, cell-based
[6] = test system: PANC-1; assay: Cytotoxicity against human PANC1 cells at 25 uM after 48 hrs by WST8 assay; assay type: functional, cell-based

Chain of DNA topoisomerase 2-alpha (P11388 whole entry): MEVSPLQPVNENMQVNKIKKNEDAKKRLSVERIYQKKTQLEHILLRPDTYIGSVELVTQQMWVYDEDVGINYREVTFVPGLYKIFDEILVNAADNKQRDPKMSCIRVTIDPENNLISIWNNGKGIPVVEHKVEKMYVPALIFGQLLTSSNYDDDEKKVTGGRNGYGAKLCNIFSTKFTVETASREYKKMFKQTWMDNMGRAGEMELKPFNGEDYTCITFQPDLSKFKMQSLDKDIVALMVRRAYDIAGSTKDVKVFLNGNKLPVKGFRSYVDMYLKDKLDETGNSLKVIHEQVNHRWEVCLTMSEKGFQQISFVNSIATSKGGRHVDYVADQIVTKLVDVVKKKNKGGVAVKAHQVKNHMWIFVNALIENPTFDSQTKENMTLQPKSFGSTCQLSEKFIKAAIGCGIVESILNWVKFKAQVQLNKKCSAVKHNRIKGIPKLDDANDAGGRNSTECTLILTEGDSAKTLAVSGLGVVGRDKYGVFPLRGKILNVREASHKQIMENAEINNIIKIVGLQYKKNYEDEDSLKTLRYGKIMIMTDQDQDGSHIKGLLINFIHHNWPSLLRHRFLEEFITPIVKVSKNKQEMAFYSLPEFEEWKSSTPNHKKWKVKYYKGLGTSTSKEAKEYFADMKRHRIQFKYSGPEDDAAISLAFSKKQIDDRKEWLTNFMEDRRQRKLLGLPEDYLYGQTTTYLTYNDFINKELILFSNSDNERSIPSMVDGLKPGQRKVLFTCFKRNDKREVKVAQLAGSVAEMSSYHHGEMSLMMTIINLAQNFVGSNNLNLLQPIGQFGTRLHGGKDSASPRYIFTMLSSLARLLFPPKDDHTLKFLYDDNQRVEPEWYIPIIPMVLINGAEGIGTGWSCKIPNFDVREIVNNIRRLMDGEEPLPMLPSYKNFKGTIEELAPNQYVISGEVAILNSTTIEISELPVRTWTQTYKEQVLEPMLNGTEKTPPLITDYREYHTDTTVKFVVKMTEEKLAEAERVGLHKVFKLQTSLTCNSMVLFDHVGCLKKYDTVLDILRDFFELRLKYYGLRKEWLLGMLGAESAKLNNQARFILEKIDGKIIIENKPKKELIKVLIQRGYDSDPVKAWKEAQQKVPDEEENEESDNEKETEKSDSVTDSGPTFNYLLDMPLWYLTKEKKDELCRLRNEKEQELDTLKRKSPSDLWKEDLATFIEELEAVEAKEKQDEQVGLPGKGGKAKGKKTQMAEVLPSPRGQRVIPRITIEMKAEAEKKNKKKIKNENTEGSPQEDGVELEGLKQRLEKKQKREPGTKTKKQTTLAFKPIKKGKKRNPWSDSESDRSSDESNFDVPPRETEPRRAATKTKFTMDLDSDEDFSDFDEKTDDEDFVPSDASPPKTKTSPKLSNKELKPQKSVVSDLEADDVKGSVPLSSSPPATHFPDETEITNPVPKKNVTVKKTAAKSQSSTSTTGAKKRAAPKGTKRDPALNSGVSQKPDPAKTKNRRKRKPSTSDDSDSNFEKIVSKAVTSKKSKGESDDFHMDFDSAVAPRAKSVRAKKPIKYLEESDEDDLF

CC(C)=CCC[C@](C)(O[C@@H]1O[C@H](CO[C@@H]2OC[C@@H](O)[C@H](O)[C@H]2O)[C@@H](O)[C@H](O)[C@H]1O)[C@H]1CC[C@]2(C)[C@@H]1[C@H](O)C[C@@H]1[C@@]3(C)CC[C@H](O[C@@H]4O[C@H](CO)[C@@H](O)[C@H](O)[C@H]4O[C@@H]4O[C@H](CO)[C@@H](O)[C@H](O)[C@H]4O)C(C)(C)[C@@H]3CC[C@]12C [GINSENOSIDE RB3]
IC50 [1]: > 250 µM | IC50 [2]: > 250 µM | growth inhibition (GI) [3]: inactive | growth inhibition (GI) [4]: inactive | growth inhibition (GI) [5]: inactive | growth inhibition (GI) [6]: inactive

C=C(C)[C@@H]1CC[C@]2(C)CC[C@]3(C)[C@@H](CC[C@@H]4[C@@]5(C)CC[C@H](OC(C)=O)C(C)(C)[C@@H]5CC[C@]43C)[C@H]12
IC50 [2]: > 250 µM | growth inhibition (GI) [3]: inactive | growth inhibition (GI) [4]: inactive | growth inhibition (GI) [5]: inactive | growth inhibition (GI) [6]: inactive

C[C@H]1[C@H](C)CC[C@]2(C(=O)O)CC[C@]3(C(=O)O)C(=CC[C@@H]4[C@@]5(C)C[C@@H](O)[C@H](O)C(C)(C)[C@@H]5CC[C@]43C)[C@H]12
IC50 [1]: > 250 µM | IC50 [2]: > 250 µM | growth inhibition (GI) [3]: inactive | growth inhibition (GI) [4]: inactive | growth inhibition (GI) [5]: inactive | growth inhibition (GI) [6]: inactive

C[C@H]1[C@H](C)CC[C@]2(C(=O)O[C@@H]3O[C@H](CO)[C@@H](O)[C@H](O)[C@H]3O)CC[C@]3(C(=O)O)C(=CC[C@@H]4[C@@]5(C)CC[C@H](O[C@@H]6O[C@H](CO)[C@@H](O)[C@H](O)[C@H]6O)C(C)(C)[C@@H]5CC[C@]43C)[C@H]12
IC50 [1]: > 250 µM | IC50 [2]: > 250 µM | growth inhibition (GI) [3]: inactive | growth inhibition (GI) [4]: inactive | growth inhibition (GI) [5]: inactive | growth inhibition (GI) [6]: inactive

CC(C)=CCC[C@](C)(O[C@@H]1O[C@H](CO[C@H]2O[C@H](CO)[C@@H](O)[C@@H]2O)[C@@H](O)[C@H](O)[C@H]1O)[C@H]1CC[C@]2(C)[C@@H]1[C@H](O)C[C@@H]1[C@@]3(C)CC[C@H](O)C(C)(C)[C@@H]3[C@@H](O)C[C@]12C [GINSENOSIDE F5]
IC50 [1]: > 250 µM | IC50 [2]: > 250 µM | growth inhibition (GI) [3]: inactive | growth inhibition (GI) [4]: inactive | growth inhibition (GI) [5]: inactive | growth inhibition (GI) [6]: inactive

C=C(C)[C@@H]1CC[C@]2(C)CC[C@]3(C)[C@H](CC[C@@H]4[C@@]5(C)CC[C@H](O)C(C)(C)[C@@H]5CC[C@]43C)[C@@H]12 [LUPEOL]
IC50 [2]: > 250 µM | growth inhibition (GI) [3]: inactive | growth inhibition (GI) [4]: inactive | growth inhibition (GI) [5]: inactive | growth inhibition (GI) [6]: inactive

CC(C)=CCC[C@](C)(O[C@@H]1O[C@H](CO[C@@H]2O[C@H](CO)[C@@H](O)[C@H](O)[C@H]2O)[C@@H](O)[C@H](O)[C@H]1O)[C@H]1CC[C@]2(C)[C@@H]1[C@H](O)C[C@@H]1[C@@]3(C)CC[C@H](O[C@@H]4O[C@H](CO)[C@@H](O)[C@H](O)[C@H]4O[C@@H]4O[C@H](CO)[C@@H](O)[C@H](O)[C@H]4O)C(C)(C)[C@@H]3CC[C@]12C [GINSENOSIDE RB1]
IC50 [1]: > 250 µM | IC50 [2]: > 250 µM | growth inhibition (GI) [3]: inactive | growth inhibition (GI) [4]: inactive | growth inhibition (GI) [5]: inactive | growth inhibition (GI) [6]: inactive

CC(C)=CCC[C@@](C)(O)[C@H]1CC[C@]2(C)[C@@H]1[C@H](O)C[C@@H]1[C@@]3(C)CC[C@H](O[C@@H]4O[C@H](CO)[C@@H](O)[C@H](O)[C@H]4O[C@@H]4O[C@H](CO)[C@@H](O)[C@H](O)[C@H]4O)C(C)(C)[C@@H]3CC[C@]12C
IC50 [1]: > 250 µM | IC50 [2]: > 250 µM | growth inhibition (GI) [3]: inactive | growth inhibition (GI) [4]: inactive | growth inhibition (GI) [5]: inactive | growth inhibition (GI) [6]: inactive

CC(C)=CCC[C@](C)(O)[C@H]1CC[C@]2(C)[C@@H]1[C@H](O)C[C@@H]1[C@@]3(C)CC[C@H](O)C(C)(C)[C@@H]3[C@@H](O[C@@H]3O[C@H](CO)[C@@H](O)[C@H](O)[C@H]3O[C@H]3O[C@@H](C)[C@H](O)[C@@H](O)[C@H]3O)C[C@]12C
IC50 [1]: > 250 µM | IC50 [2]: > 250 µM | growth inhibition (GI) [3]: inactive | growth inhibition (GI) [4]: inactive | growth inhibition (GI) [5]: inactive | growth inhibition (GI) [6]: inactive

C[C@H]1[C@H](C)CC[C@]2(C(=O)O[C@@H]3O[C@H](CO)[C@@H](O)[C@H](O)[C@H]3O)CC[C@]3(C(=O)O)C(=CC[C@@H]4[C@@]5(C)CC[C@H](O)C(C)(C)[C@@H]5CC[C@]43C)[C@H]12
IC50 [1]: > 250 µM | IC50 [2]: > 250 µM | growth inhibition (GI) [3]: inactive | growth inhibition (GI) [4]: inactive | growth inhibition (GI) [5]: inactive | growth inhibition (GI) [6]: inactive

CC(C)=CCC[C@](C)(O[C@@H]1O[C@H](CO)[C@@H](O)[C@H](O)[C@H]1O)[C@H]1CC[C@]2(C)[C@@H]1[C@H](O)C[C@@H]1[C@@]3(C)CC[C@H](O)C(C)(C)[C@@H]3[C@@H](O[C@@H]3O[C@H](CO)[C@@H](O)[C@H](O)[C@H]3O[C@@H]3O[C@@H](C)[C@H](O)[C@@H](O)[C@H]3O)C[C@]12C [GINSENOSIDE RE]
IC50 [1]: > 250 µM | IC50 [2]: > 250 µM | growth inhibition (GI) [3]: inactive | growth inhibition (GI) [4]: inactive | growth inhibition (GI) [5]: inactive | growth inhibition (GI) [6]: inactive

C[C@H]1[C@H](C)CC[C@]2(C(=O)O)CC[C@]3(C(=O)O)C(=CC[C@@H]4[C@@]5(C)CC[C@H](O[C@H]6O[C@@H](C)[C@H](O)[C@@H](O)[C@H]6O)C(C)(C)[C@@H]5CC[C@]43C)[C@H]12
IC50 [1]: > 250 µM | IC50 [2]: > 250 µM | growth inhibition (GI) [3]: inactive | growth inhibition (GI) [4]: inactive | growth inhibition (GI) [5]: inactive | growth inhibition (GI) [6]: inactive

C[C@H]1[C@H](C)CC[C@]2(C(=O)O[C@@H]3O[C@H](CO)[C@@H](O)[C@H](O)[C@H]3O)CC[C@]3(C(=O)O)C(=CC[C@@H]4[C@@]5(C)CC[C@H](O[C@@H]6O[C@H](CO)[C@@H](O[C@H]7O[C@@H](C)[C@H](O)[C@@H](O)[C@H]7O)[C@H](O)[C@H]6O)C(C)(C)[C@@H]5CC[C@]43C)[C@H]12
IC50 [1]: > 250 µM | IC50 [2]: > 250 µM | growth inhibition (GI) [3]: inactive | growth inhibition (GI) [4]: inactive | growth inhibition (GI) [5]: inactive | growth inhibition (GI) [6]: inactive

CC(C)=CCC[C@](C)(O[C@@H]1O[C@H](CO)[C@@H](O)[C@H](O)[C@H]1O)[C@H]1CC[C@]2(C)[C@@H]1[C@H](O)C[C@@H]1[C@@]3(C)CC[C@H](O[C@@H]4O[C@H](CO)[C@@H](O)[C@H](O)[C@H]4O)C(C)(C)[C@@H]3CC[C@]12C [GINSENOSIDE F2]
IC50 [1]: > 250 µM | IC50 [2]: > 250 µM | growth inhibition (GI) [3]: inactive | growth inhibition (GI) [4]: inactive | growth inhibition (GI) [5]: inactive | growth inhibition (GI) [6]: inactive

CC(C)=CCC[C@](C)(O[C@@H]1O[C@H](CO)[C@@H](O)[C@H](O)[C@H]1O)[C@H]1CC[C@]2(C)[C@@H]1[C@H](O)C[C@@H]1[C@@]3(C)CC[C@H](O[C@@H]4O[C@H](CO)[C@@H](O)[C@H](O)[C@H]4O[C@@H]4O[C@H](CO)[C@@H](O)[C@H](O)[C@H]4O)C(C)(C)[C@@H]3CC[C@]12C [GINSENOSIDE RD]
IC50 [1]: > 250 µM | IC50 [2]: > 250 µM | growth inhibition (GI) [3]: inactive | growth inhibition (GI) [4]: inactive | growth inhibition (GI) [5]: inactive | growth inhibition (GI) [6]: inactive

C[C@H]1[C@H](C)CC[C@]2(C(=O)O[C@@H]3O[C@H](CO)[C@@H](O)[C@H](O)[C@H]3O)CC[C@]3(C(=O)O)C(=CC[C@@H]4[C@@]5(C)CC[C@H](O[C@H]6O[C@@H](C)[C@H](O)[C@@H](O)[C@@H]6O)C(C)(C)[C@@H]5CC[C@]43C)[C@H]12
IC50 [1]: > 250 µM | IC50 [2]: > 250 µM | growth inhibition (GI) [3]: inactive | growth inhibition (GI) [4]: inactive | growth inhibition (GI) [5]: inactive | growth inhibition (GI) [6]: inactive

C[C@H]1[C@H](C)CC[C@]2(C(=O)O[C@@H]3O[C@H](CO)[C@@H](O)[C@H](O)[C@H]3O[C@@H]3OC[C@H](O)[C@H](O)[C@H]3O)CC[C@]3(C(=O)O)C(=CC[C@@H]4[C@@]5(C)CC[C@H](O[C@@H]6O[C@H](CO)[C@@H](O)[C@H](O)[C@H]6O)C(C)(C)[C@@H]5CC[C@]43C)[C@H]12
IC50 [1]: > 250 µM | IC50 [2]: > 250 µM | growth inhibition (GI) [3]: inactive | growth inhibition (GI) [4]: inactive | growth inhibition (GI) [5]: inactive | growth inhibition (GI) [6]: inactive
